Test systems include NCI-H23 lung; OVCAR-5 ovarian; SF-268 CNS; SF-539 CNS; SK-MEL-2 melanoma; TK-10 renal; UACC-257 melanoma; UACC-62 melanoma; HOP-92 NSCLC.
Holding throughout (assay): growth of human tumour cells (NCI), 48 h

The record followed here is PubChem BioAssay (NCI).

Where “and” joins values, the source holds several entries; their conditions need not be identical. Identical values can stand only once.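 Cells were grown in 96-well plates and exposed to each compound for 48 hours at five concentrations; endpoints were interpolated linearly between bracketing concentrations, or set to the highest concentration if not reached. Here, GI50 denotes the concentration required for 50% inhibition of growth. TGI marks complete inhibition of growth.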

As to `CCOC(=O)C1Nc2ccc([N+](=O)[O-])cc2[C@H]2OCC[C@@H]12` (some centres undefined), the TGI with NCI-H23 lung, in the experiment with OVCAR-5 ovarian, with SF-268 CNS, in the experiment on SF-539 CNS, with SK-MEL-2 melanoma and in the experiment on TK-10 renal was more than 100 µM in each case. Besides, the TGI with UACC-257 melanoma and with UACC-62 melanoma was more than 100 µM throughout.

Regarding `C/C(=N\NC(=O)C[n+]1ccccc1)c1sc(-c2nc(C)c(/C(C)=N/NC(=O)C[n+]3ccccc3)s2)nc1C`, the TGI in the experiment with HOP-92 NSCLC, in the experiment with NCI-H23 lung, in the experiment on OVCAR-5 ovarian, in the experiment with SF-268 CNS, in the experiment on SF-539 CNS and with SK-MEL-2 melanoma was more than 100 µM in each case. Moreover, the TGI in the experiment with TK-10 renal, in the experiment with UACC-257 melanoma and in the experiment on UACC-62 melanoma was more than 100 µM in each case.

Consider `CCCCCCCCCCCCCCCCCc1cc(Cl)nc(Cl)n1`, for which the TGI in the experiment with NCI-H23 lung, in the experiment with OVCAR-5 ovarian, in the experiment with SF-268 CNS, with SF-539 CNS, in the experiment with SK-MEL-2 melanoma and in the experiment on TK-10 renal was more than 100 µM throughout. For the same molecule, the TGI in the experiment on UACC-257 melanoma and in the experiment with UACC-62 melanoma was more than 100 µM throughout.

For the molecule `CCOc1ccc(NC(=O)/C(Cc2nc3ccccc3[nH]c2=O)=N\O)cc1`, the TGI in the experiment with HOP-92 NSCLC, in the experiment with NCI-H23 lung, in the experiment on OVCAR-5 ovarian, in the experiment with SF-268 CNS, in the experiment with SF-539 CNS and with SK-MEL-2 melanoma was more than 100 µM in each case. Also, the TGI with TK-10 renal, with UACC-257 melanoma and in the experiment with UACC-62 melanoma was more than 100 µM each time.

As to `Clc1cc2nc[nH]c2cc1Cl`, the TGI in the experiment on HOP-92 NSCLC, with NCI-H23 lung, with OVCAR-5 ovarian, in the experiment with SF-268 CNS, in the experiment with SF-539 CNS and in the experiment with SK-MEL-2 melanoma was more than 100 µM throughout. For the same molecule, the TGI in the experiment on TK-10 renal and in the experiment on UACC-62 melanoma was more than 100 µM in each case.

In the case of `CC(=O)O[C@H]1CC[C@@]2(C)C(=CC[C@@H]3C2CC[C@]2(C)C(=O)NC(=O)CC32)C1` (some centres undefined), the TGI with HOP-92 NSCLC, with NCI-H23 lung, with OVCAR-5 ovarian, with SF-268 CNS, in the experiment with SF-539 CNS and with SK-MEL-2 melanoma was more than 100 µM throughout. Moreover, the TGI in the experiment with TK-10 renal, with UACC-257 melanoma and in the experiment on UACC-62 melanoma was more than 100 µM in each case.

As to `O=C1C[C@@H]2[C@@H](C=CC23CC3)N1O`, the TGI in the experiment with NCI-H23 lung, with OVCAR-5 ovarian, in the experiment on SF-268 CNS, in the experiment with SF-539 CNS, in the experiment with SK-MEL-2 melanoma and in the experiment on TK-10 renal was more than 100 µM each time. The TGI in the experiment on UACC-257 melanoma and in the experiment on UACC-62 melanoma was more than 100 µM throughout.

On to `N#CC1=C(c2ccccc2)NN(Cc2ccccc2)C(c2ccc(Cl)cc2)CC1=O` (centres undefined), for which the TGI with HOP-92 NSCLC is 45.1 µM; in the experiment with NCI-H23 lung, more than 100 µM; in the experiment on OVCAR-5 ovarian, more than 100 µM; in the experiment on SF-268 CNS it was more than 100 µM; with SK-MEL-2 melanoma, more than 100 µM; with TK-10 renal it was more than 100 µM. The same molecule had a TGI in the experiment on UACC-257 melanoma of more than 100 µM.

As to `CC(C)COC(=O)N1N=NC2C3CC(=O)C(O3)C21` (centres undefined), the TGI with HOP-92 NSCLC, with NCI-H23 lung, with OVCAR-5 ovarian, in the experiment on SF-268 CNS, in the experiment with SF-539 CNS and with SK-MEL-2 melanoma was more than 100 µM in each case. The TGI in the experiment with TK-10 renal, with UACC-257 melanoma and in the experiment on UACC-62 melanoma was more than 100 µM each time.

As for `CC(=O)OC1COC(n2c(O)c(N=Nc3ccc([N+](=O)[O-])cc3)c3cc(Br)c([N+](=O)[O-])cc32)C(OC(C)=O)C1OC(C)=O` (centres undefined), the TGI with HOP-92 NSCLC was 78 µM; in the experiment on NCI-H23 lung, more than 100 µM; in the experiment on OVCAR-5 ovarian it was more than 100 µM; with SF-268 CNS, more than 100 µM; with SF-539 CNS, more than 100 µM; with SK-MEL-2 melanoma, more than 100 µM. For the same molecule, the TGI in the experiment on TK-10 renal was more than 100 µM; with UACC-257 melanoma, more than 100 µM; in the experiment on UACC-62 melanoma it was 36.6 µM.

With `COc1ccc(C(=C(C#N)C#N)c2ccc(OC)cc2)cc1`, the TGI with NCI-H23 lung, in the experiment with OVCAR-5 ovarian, with SF-268 CNS, in the experiment with SF-539 CNS, with SK-MEL-2 melanoma and in the experiment on TK-10 renal was more than 100 µM each time. For the same molecule, the TGI with UACC-257 melanoma and with UACC-62 melanoma was more than 100 µM in each case.

As to `CC1OC(OC23C(=O)CC(C)(O)CC2(O)C=CC2=C3C(=O)c3ccc(C4CC(OC5CCC(OC6CC(O)C(O)C(C)O6)C(C)O5)C(O)C(C)O4)c(O)c3C2=O)CCC1O` (centres undefined), the GI50 in the experiment on HOP-92 NSCLC is 15.2 µM and 4.81 µM. In addition, the TGI was 28.7 µM and 14.8 µM with HOP-92 NSCLC; 33.1 µM and 30.7 µM in the experiment on NCI-H23 lung; 33.1 µM and 34.9 µM with OVCAR-5 ovarian; 31.4 µM and 31.2 µM with SF-268 CNS; 31.8 µM and 31.4 µM in the experiment with SF-539 CNS; 31.2 µM and 30.5 µM in the experiment on SK-MEL-2 melanoma. Moreover, the TGI was 36.5 µM and 31.6 µM with TK-10 renal; 31.9 µM and 28.8 µM in the experiment on UACC-257 melanoma; 30 µM and 27.1 µM in the experiment with UACC-62 melanoma.

As for `CN1CCN2c3ccccc3CC(C#N)(C#N)C2C1` (centres undefined), the TGI with HOP-92 NSCLC, in the experiment with NCI-H23 lung, in the experiment on OVCAR-5 ovarian, with SF-268 CNS, with SF-539 CNS and in the experiment with SK-MEL-2 melanoma was more than 100 µM each time. Further, the TGI with TK-10 renal, with UACC-257 melanoma and in the experiment on UACC-62 melanoma was more than 100 µM in each case.

Regarding `OCC(O)C(O)C(O)c1nn[nH]n1` (centres undefined), the TGI in the experiment on HOP-92 NSCLC, in the experiment with NCI-H23 lung, in the experiment with OVCAR-5 ovarian, with SF-268 CNS, with SF-539 CNS and in the experiment with SK-MEL-2 melanoma was more than 100 µM in each case. The molecule further returned a TGI in the experiment with UACC-62 melanoma of more than 100 µM.

As for `CC(C)(C)c1cc(O)c2c(c1O)C(=O)CCC2`, the TGI in the experiment on HOP-92 NSCLC is 21.1 µM; in the experiment with NCI-H23 lung, more than 100 µM; with SF-539 CNS it was more than 100 µM; in the experiment on TK-10 renal, more than 100 µM; in the experiment on UACC-257 melanoma, 74.3 µM; in the experiment on UACC-62 melanoma, 80.5 µM.
